Here are results for 1 molecule from patent US20090196917A1, “Liposomal Formulations of Hydrophobic Lactone Drugs in the Presence of Metal Ions” (University of Kentucky Research Foundation, priority 2008, published 2009).

Data set [1] in a line: Active loading of DB-67 into liposomes, calcium acetate gradient (Example 14). The conditions noted are these: liposomes made by active loading procedure, pH and calcium ion gradient, 40° C.
For data set [2] the following is noted: after 24 hrs, novel approach (active loading).
For data set [3] the following is noted: after intravenous administration, animal data; cited from earlier work.
A short description of data set [4]: Active loading of DB-67 into Ca(OAc)2 DSPC/m-PEG DSPE vesicles (Example 15). The following applies: end of loading.
The conditions of data set [5]: pH 7.4.

Several values for one entry are separate records, joined by “and”; a condition that tells them apart may be missing. Equal values may be shown once.

In the case of `CC[C@@]1(O)C(=O)OCc2c1cc1n(c2=O)Cc2c-1nc1ccc(O)cc1c2[Si](C)(C)C(C)(C)C` [DB-67, silatecan 7-t-butyldimethylsilyl-10-hydroxycamptothecin], the “suspension drug concentration (all drug being entrapped)” value in data set [1] is reported as not above 3 mM. Further, the retained drug entry in data set [2] was “approximately 50%”. For the same molecule, the “lactone to total AUC” value in data set [3] was more than 90%. Also, in data set [4], the “intravesicular DB-67 concentration” value is ~21 mM and ~10 mg/mL. The “half-life for release (liposome retention)” value in data set [5] came to 22 ± 6 h.
